The record followed here is US20250270251A1, “PROCESS FOR THE PREPARATION OF […] HAVING A DEFINITE PARTICLE SIZE DISTRIBUTION AND A IRREGULAR HEXAGON PLATES CRYSTAL HABIT” (F.I.S. - FABBRICA ITALIANA SINTETICI S.P.A., priority 2020, published 2025).

Holding throughout (type): physicochemical
Series [1] in a line: Particle size distribution (PSD) with a Malvern Mastersizer 3000. The method, then: Particle size distribution (PSD): In particular, particle size distribution was determined with a Malvern Mastersizer 3000, and the other parameters used are reported in table below: […]
Series [2] can be described thus: DSC comparative study of crystal habits. The settings on record: irregular hexagon plates versus non-irregular hexagon plates crystals; from DSC onset and peak. As to the method:
DSC analysis was recorded with a Mettler DSC822e. A sample of compound was charged into a 40 μL aluminium crucible with a pinhole lid and was heated, under nitrogen (50 mL/min), at 10° C./min from 30 to 300° C.
DSC testing was performed in a sealed medium pressure stainless steel crucible. All the testing was performed by heating the sample from 30° C. at a rate of 10° C./minute up to a maximum temperature of 300° C.
On the technique in general: DSC measures the heat that a sample takes up or gives off during a temperature scan.

Series [3] is described as follows: Microscopy analysis (SEM) for identification of crystal habit and size. The settings on record: crystallized with a C2-C5 alkyl alcohol, examples 2 to 9. The method, then: The mean square weight means is determined by chord-length distribution analysis of Trenbolone Acetate of formula (I), in particular, was through by scanning electron microscopy (SEM).
Microscopy analysis: the solid of Trenbolone Acetate (I) was analysed by microscopy for identification of crystal habits.
Microscope was recorded with a Zeiss Evo MA10 scanning electron microscope. A sample of powder has been gold spattered and observed by SEM at different magnification, micrographs have been collected at same conditions and magnification (20 kV, HDBSD, Variable Pressure). All the samples have been observed after same treatment and same time after preparation.

[4] abbreviates: Example 12, crystallization from isopropanol, seed D10 4-12, D50 12-29, D90 <76 μm.
The mark [5] stands for this setting: Example 13, recrystallization from IPA, seed D10 2-5, D50 10-20, D90 25-51 μm.

On to `CC(=O)O[C@H]1CC[C@H]2[C@@H]3CCC4=CC(=O)CCC4=C3C=C[C@]12C` [Compound (I), 17beta-acetoxy-estra-4,9,11-triene-3-one], for which the “PSD D50” value in series [1] (Example 2, crystallization from isopropanol, seeded at 20-25 °C) is 67-130 μm. Besides, in series [1] (setting [4]), the “PSD D10” value is on record as 15-40 μm, the “PSD D50” value is 67-130 μm and the “PSD D90” value is on record as 350 μm. Further, in series [1] (setting [5]), the “PSD D10” value is listed as 15-40 μm, the “PSD D50” value is on record as 67-130 μm and the “PSD D90” value was found to be 300 μm. In series [2], the “thermodynamic stability of the crystal habit” value is “thermodynamically more stable”. In addition, in series [3], the “size range of thin irregular hexagon plates” value is 20-200 micron.
